Source: patent US11970474B2, “Substituted benzodiazoles and use thereof in therapy” (THOMAS HELLEDAYS STIFTELSE FÖR MEDICINSK FORSKNING, priority 2018, dated 2024)
Where two headings read alike, the source gives them in different places.

What was measured:
OGG1 = OGG1 (Homo sapiens (Human), UniProt O15527); test: In vitro OGG1 activity assay; assay type: biochemical; conditions: 800 pM OGG1 enzyme, 2 nM human APEX1, 10 nM 8-oxoA:C substrate
Procedure, shortened: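 Read-out is fluorescein fluorescence, with compounds in DMSO added first, then enzyme and substrate. OGG1 excises its substrate base from a quenched fluorophore-labelled duplex, and surplus APEX1 cuts the resulting apurinic site. The duplex then melts and fluorescence rises in proportion to glycosylase activity.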

MLE12 cells = test: Cell viability assay in MLE12 cells (resazurin); assay type: cell-based, mouse; conditions: Mus musculus, TNF-α 20 ng/ml, resazurin added after 24 hours culture
Description: (§1) Stock solutions (10 mM in DMSO) of compounds were dispensed in V-bottom 384-well plates and the following dilutions were prepared: 10 mM and 0.05 mM. The dilutions were transferred to the source plate. Duplicate 6 points dose-response curves of compounds were nano-dispensed in cell plates (CCL2 assay) and in parallel, 11 points DR curves in duplicates were nano-dispensed for the viability assay. The plates were heat sealed and kept at RT until use.
(§2) MLE12 cells in flasks were washed once with PBS, detached with Trypsin/EDTA, resuspended in fresh medium and counted. Cells were diluted to 3×10^5 cells/ml and seeded with Multidrop Combi in cell plates pre-dispensed with compounds, 25 μl/well (7500 cells/well). The plates were placed, one by one, in a CO2-incubator at 37° C. for 1 hour after which 25 μl/well of TNF-α (final concentration 20 ng/ml) were added. The plates were transferred back to the CO2-incubator placed in a plastic box with wet tissue in the bottom, to avoid evaporation, for 30 hours.
After 24 hours culture, resazurin reagent (stock 1 mg/ml in PBS) diluted 1:17 in PBS was added with Multidrop Combi, 10 μl/well, and plates were incubated for 6 hours. Plates were read in Sense plate reader with resorufin protocol (ex544 nm/em595 nm). The results were imported to an excel template where the EC50 values were calculated using XLfit.

CCL2 = test: Mouse CCL2 assay in MLE12 cells; assay type: cell-based; conditions: Mus musculus, MLE12, 30 h
Excerpt: Cisbio mouse CCL2 assay is intended for the quantitative measurement of CCL2 in supernatant using HTRF® technology. The assay is compatible with mouse samples, and is highly specific for CCL2. CCL2 is detected in a sandwich assay format using 2 different specific antibodies, one labeled with Cryptate (donor) and the second with d2 (acceptor). The detection principle is based on HTRF® technology. When the labelled antibodies bind to the same antigen, the excitation of the donor with a light source (laser or flash lamp) triggers a Fluorescence Resonance Energy Transfer (FRET) towards the acceptor, which in turn fluoresces at a specific wavelength (665 nm). The two antibodies bind to the CCL2 present in the sample, thereby generating FRET. Signal intensity is proportional to the number of antigen-antibody complexes formed and therefore to the CCL2 concentration. • Materials: • Cells: MLE12 (Mouse Lung Epithelial cells, SV40 transformed) • Medium: DMEM/F12 (Gibco #11330057), FBS 5% (Gibco #10500064), Pen/Strep 50 U/50 μg/ml (Gibco #15070063) • Cell plates: 384-well, black/clear, TC-treated (Corning #3764) • Source plate: Labcyte LDV 384 (Labcyte #LP-0200) • Compound dilution plate: V-bottom 384-well PP plate (Greiner #781280) • Compounds: 10 mM stocks in DMSO • HTRF plates: 384-well, white, half area, non-binding (Costar #3824) • Mouse CCL2 kit: Cisbio 62MCCL2PEH • Other reagents: Trypsin/EDTA 10× (Gibco #15400054), PBS (Gibco #14190169), Resazurin (Sigma-Aldrich #199303), 1 mg/ml in PBS, TNF-α 200 μg/ml in PBS (Peprotech #300-01A) • Instruments: • Echo liquid handler (Labcyte) • Multidrop Combi (Thermo Scientific) • Sense plate reader (Hidex) Compound Handling:
as §1, §2
After 30 hours incubation, the plates were spun down 5 minutes at 400 g, and 16 μl/well of the supernatants were transferred to the assay plate. A mCCL2 standard curve was prepared according to the kit protocol and 16 μl/well of the standards were also added to the assay plate.
The anti-CCL2 antibody mix was prepared according to the kit protocol, and 4 μl/well were added to the assay plate. The plate was sealed and incubated over night at RT. After incubation the plate was read in Sense plate reader with Time-resolved FRET protocol (Ex330 nm/Em 620 and 665 nm). After data reduction, the delta ratios were imported to an excel template where the IC50 values were calculated.

[1] = MLE12 cells, TNF-α 20 ng/ml, supernatant after 30 hours, HTRF, read-out: CCL2 (EC50)

Sequence of OGG1 (O15527 whole entry): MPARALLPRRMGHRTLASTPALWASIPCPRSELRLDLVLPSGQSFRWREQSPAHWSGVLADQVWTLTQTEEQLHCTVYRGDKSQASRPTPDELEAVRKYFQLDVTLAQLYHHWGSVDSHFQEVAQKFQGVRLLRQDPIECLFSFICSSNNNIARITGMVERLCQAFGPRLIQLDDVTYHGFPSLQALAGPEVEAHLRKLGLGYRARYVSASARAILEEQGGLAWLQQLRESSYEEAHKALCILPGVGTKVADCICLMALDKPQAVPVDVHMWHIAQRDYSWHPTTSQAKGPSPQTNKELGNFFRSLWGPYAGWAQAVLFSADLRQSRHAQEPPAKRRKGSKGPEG

SMILES | IC50 (OGG1) [µM] | IC50 (MLE12 cells; MLE12, 24 h) [µM] | EC50 (CCL2; [1]) [nM] | IC50 (MLE12 cells) [µM] | EC50 (CCL2; read-out: CCL2 (EC50, nM)) [nM]
Cc1cc(NC(=O)N2C3CCC2CC(n2c(=O)[nH]c4c(-c5ccc(CO)nc5)cccc42)C3)ccc1I (stereo not drawn) [Example 91, 3-{4-[6-(Hydroxymethyl)pyridin-3-yl]-2-oxo-2,3-dihydro-1H-1,3-benzodiazol-1-yl}-N-(4-iodo-3-methylphenyl)-(endo)-8-azabicyclo[3.2.1]octane-8-carboxamide] | 0.058 | 6.45 | 12600 | – | –
COc1ncc(NC(=O)[C@H]2CC[C@@H](n3c(=O)[nH]c4c(Br)cccc43)CC2)cc1C [Example 168, (Cis)-4-(4-bromo-2-oxo-2,3-dihydro-1H-1,3-benzodiazol-1-yl)-N-(6-methoxy-5-methylpyridin-3-yl)cyclohexane-1-carboxamide] | 0.044 | 14.4 | 32600 | – | –
COc1cc(NC(=O)[C@H]2CC[C@@H](n3c(=O)[nH]c4c(Br)cccc43)CC2)ccc1F [Example 130, (Cis)-4-(4-bromo-2-oxo-2,3-dihydro-1H-1,3-benzodiazol-1-yl)-N-(4-fluoro-3-methoxyphenyl)cyclohexane-1-carboxamide] | – | 6.36 | 22600 | – | –
Cc1cc(NC(=O)N2C3CCC2CC(n2c(=O)[nH]c4c(Br)cccc42)C3)ccc1I (stereo not drawn) [Example 84, 3-(4-Bromo-2-oxo-2,3-dihydro-1H-1,3-benzodiazol-1-yl)-N-(4-iodo-3-methylphenyl)-(endo)-8-azabicyclo[3.2.1]octane-8-carboxamide] | 0.03 | – | – | 8.14 | 23900
O=C(Nc1ccc(Cl)c(F)c1)N1C2CCC1CC(n1c(=O)[nH]c3c(Br)cccc31)C2 (stereo not drawn) [Example 86, 3-(4-Bromo-2-oxo-2,3-dihydro-1H-1,3-benzodiazol-1-yl)-N-(4-chloro-3-fluorophenyl)-(endo)-8-azabicyclo[3.2.1]octane-8-carboxamide] | 0.059 | – | – | 13.7 | 19400
COCCOc1cccc2c1[nH]c(=O)n2[C@H]1CC[C@@H](C(=O)Nc2ccc(C)c(OC)c2)CC1 [Example 245, Cis-N-(3-methoxy-4-methylphenyl)-4-[4-(2-methoxyethoxy)-2-oxo-2,3-dihydro-1H-1,3-benzodiazol-1-yl]cyclohexane-1-carboxamide] | 2.76 | 12.5 | > 33000 | – | –
COc1cc(NC(=O)[C@H]2CC[C@@H](n3c(=O)[nH]c4c(N5CCNCC5)cccc43)CC2)ccc1C [Example 240, Cis-N-(3-methoxy-4-methylphenyl)-4-[2-oxo-4-(piperazin-1-yl)-2,3-dihydro-1H-1,3-benzodiazol-1-yl]cyclohexane-1-carboxamide] | 0.0153 | 16.1 | 21500 | – | –
COc1cc(NC(=O)[C@H]2CC[C@@H](n3c(=O)[nH]c4c(Cl)cccc43)CC2)ccc1C [Example 146, (Cis)-4-(4-chloro-2-oxo-2,3-dihydro-1H-1,3-benzodiazol-1-yl)-N-(3-methoxy-4-methylphenyl)cyclohexane-1-carboxamide] | 0.027 | 9.72 | 29600 | – | –
O=c1[nH]c2c(Br)cccc2n1[C@H]1CC[C@@H](C(=O)Nc2ccc(O)c(Cl)c2)CC1 [Example 201, Cis-4-(4-bromo-2-oxo-2,3-dihydro-1H-1,3-benzodiazol-1-yl)-N-(3-chloro-4-hydroxyphenyl)cyclohexane-1-carboxamide] | 0.0351 | 10.4 | 18200 | – | –
CNCCOc1cccc2c1[nH]c(=O)n2[C@H]1CC[C@@H](C(=O)Nc2ccc(C)c(OC)c2)CC1 [Example 309, Cis-N-(3-methoxy-4-methylphenyl)-4-{4-[2-(methylamino)ethoxy]-2-oxo-2,3-dihydro-1H-1,3-benzodiazol-1-yl}cyclohexane-1-carboxamide] | 0.00326 | 15.6 | 27800 | – | –
COc1cc(NC(=O)N2CCC(n3c(=O)[nH]c4c(-c5ccc(CO)nc5)cccc43)CC2)ccc1C [Example 82, 4-{4-[6-(Hydroxymethyl)pyridin-3-yl]-2-oxo-2,3-dihydro-1H-1,3-benzodiazol-1-yl}-N-(3-methoxy-4-methylphenyl)piperidine-1-carboxamide] | 1 | 17.7 | 30800 | – | –
Cc1n[nH]c2ccc(NC(=O)[C@H]3CC[C@@H](n4c(=O)[nH]c5c(Br)cccc54)CC3)cc12 [Example 199, Cis-4-(4-bromo-2-oxo-2,3-dihydro-1H-1,3-benzodiazol-1-yl)-N-(3-methyl-1H-indazol-5-yl)cyclohexane-1-carboxamide] | 0.494 | 7.51 | 16500 | – | –
O=C(Nc1ccc(I)cc1)N1CCC(n2c(=O)[nH]c3c(-c4cccnc4)cccc32)CC1 [Example 26, N-(4-iodophenyl)-4-[2-oxo-4-(pyridin-3-yl)-2,3-dihydro-1H-1,3-benzodiazol-1-yl]piperidine-1-carboxamide] | – | 7.7 | 15000 | – | –
O=C(Nc1ccc(I)cc1)N1CCC(n2c(=O)[nH]c3cc(Cl)ccc32)CC1 [Example 2, 4-(5-Chloro-2-oxo-2,3-dihydro-1H-1,3-benzodiazol-1-yl)-N-(4-iodophenyl) piperidine-1-carboxamide] | – | 10.3 | 15400 | – | –
Cc1ccc(NC(=O)[C@H]2CC[C@@H](n3c(=O)[nH]c4c(Br)cccc43)CC2)cc1C [Example 124, (Cis)-4-(4-bromo-2-oxo-2,3-dihydro-1H-1,3-benzodiazol-1-yl)-N-(3,4-dimethylphenyl)cyclohexane-1-carboxamide] | – | 11.5 | 31200 | – | –
Nc1cccc2c1[nH]c(=O)n2C1CCN(C(=O)Nc2ccc(I)cc2)CC1 [Example 20, 4-(4-Amino-2-oxo-2,3-dihydro-1H-1,3-benzodiazol-1-yl)-N-(4-iodophenyl)piperidine-1-carboxamide] | – | 11.5 | 33000 | – | –
O=C(Nc1ccc(I)cc1)N1CCC(n2c(=O)[nH]c3c(-n4cc(Br)cn4)cccc32)CC1 [Example 41, 4-[4-(4-Bromo-1H-pyrazol-1-yl)-2-oxo-2,3-dihydro-1H-1,3-benzodiazol-1-yl]-N-(4-iodophenyl)piperidine-1-carboxamide] | – | 16.6 | 50700 | – | –
COc1cc(NC(=O)[C@H]2CC[C@@H](n3c(=O)[nH]c4c(N)cccc43)CC2)ccc1C [Example 249, Cis-4-(4-amino-2-oxo-2,3-dihydro-1H-1,3-benzodiazol-1-yl)-N-(3-methoxy-4-methylphenyl)cyclohexane-1-carboxamide] | – | 15.7 | 34700 | – | –
O=c1[nH]c2c(Br)cccc2n1[C@H]1CC[C@@H](C(=O)Nc2ccc(Cl)c(F)c2)CC1 [Example 121, (Cis)-4-(4-bromo-2-oxo-2,3-dihydro-1H-1,3-benzodiazol-1-yl)-N-(4-chloro-3-fluorophenyl)cyclohexane-1-carboxamide] | – | 4.86 | 13000 | – | –
